Patent US12502391B2, “Multi-kinase inhibitors of VEGF and TGF beta and uses thereof” (AIVIVA BIOPHARMA, INC., priority 2018, dated 2025)
“And” between values parts separate entries of the source, which are not always exact repeats. Identical values can stand only once.

Tests used:
TGF-β1 mRNA = TGF-β1 mRNA expression (qRT-PCR) in Yucatan pig skin wound sites; format: in vivo, Yucatan minipigs; details: Yucatan pig skin wound sites after treatments; for TGF-β1 mRNA Expression Fold Relative to Untreated Unwounded Control: individual animals 7369, 7370, 7371, duplicate sets 1 and 2, beta actin reference gene
Excerpt: (§1) In this experiment, multiple full-thickness excision wounds were made to the dorsum of Yucatan minipigs, and the wound sites were allowed to be re-epithelialized adequately. At four weeks post-wound, the wound sites had normal to pink vascularity and had pliability. Epidermal hyperplasia was observed, as expected for regenerative responses in the full-thickness wounds.
(§2) On Day 28 post-wound, a dose (e.g., 1%) of axitinib, nintedanib, riociguat, sorafenib, sunitinib, and/or lenvatinib was administered into the dermal tissue at or around the wound sites, once every two weeks on two occasions. One wound site was left untreated as the control for each pig. Please note that the particular parameters in this example are only for illustration. One skilled in the art would appreciate that the dosages, administration methods, treatment regimen, and the administration sites may be varied to achieve similar results.
In addition, total mRNA was isolated from skin biopsies of the treated wound sites and the untreated unwounded sites of the pigs. The mRNA samples were used to prepare cDNA and analyzed via qRT-PCR. The TGF-β1 expression levels were assessed using beta actin as a reference gene.

[1] = test system: suture-induced ocular fibrosis; test: Rabbit corneal suture-induced ocular fibrosis model; format: in vivo, rabbits; details: 0.3% w/v eyedrops 35 uL three times daily for 10 days
Excerpt: In order to investigate the anti-fibrotic effect of test compounds following wounding in the eye, a suture-induced ocular fibrosis model was used. Suture was placed intrastromally under a microscope in the cornea of rabbits. In each eye, one 9.0 silk suture was placed, in a vertical position, temporal to the corneal center and a second suture was placed nasal to the corneal center. Each suture had two stromal incursions approximately 2 mm from the limbus. Test compounds having certain spectrum of multikinase inhibition activities and/or vehicle were topically instilled (35 uL/eye) in the eyes three times daily for 10 days the day following surgery. The treatment groups include vehicle, nintedanib (0.3%, w/v), pirfenidone (1%, w/v), riociguat (0.3%, w/v), sorafenib (0.3%, w/v) and lenvatinib (0.3%, w/v). Six left eyes were used per treatment group.
The animals were sacrificed on Day 11 and the eyes enucleated and dissected for histopathological evaluation.

TGF-beta 1 = test: Dermal TGFb1 levels (ELISA) after linear incisional wounds in minipigs; format: in vivo, Gottingen Minipigs; details: approximately 16 mg intradermally once per incisional wound, biopsies days 4, 7, 9 post-dosing
Excerpt: The purpose of this study was to evaluate the topical effects of axitinib, nintedanib, sorafenib and lenvatinib when administered via intradermal injection to the dorsal skin along linear incisions of minipigs. Linear incisional wound was made to elicit inflammatory and wound healing process in the skin. After dosing, mammals were observed post dose for 9 days to assess the levels of TGFb1 expressions in the skin.
Three male Gottingen Minipigs® dosed once via intradermal injection along the edges of each of the linear incision wound sites for each mammal (wounds on the dorsum, perpendicular to the spine, approximately 3 cm in length and 3 cm distance from the spine). Each incisional wound received approximately 16 mg of the test compound intradermally once along both sides of the linear wound.
On days of 4, 7, and 9 post-dosing, one 4 mm dermal punch biopsy was collected for each incisional wound and processed for TGF-beta 1 analysis with ELISA, using a commercial kit (e.g., the kit from Thermo Fisher or other vendors).

TGF beta1 mRNA = TGF beta1 mRNA expression (qRT-PCR) in rabbit ear hypertrophic scar model; format: in vivo, New Zealand white rabbits; details: 1% w/w, 100 μl intradermal on days 15 and 29, harvest Day 43
Experimental: The objective of this study was to examine the effect of test compounds on wound healing and TGF beta expression after dermal injury in a rabbit ear hypertrophic scar model.
In New Zealand white rabbits, maintained under a surgical plane of anesthesia, trauma stimulation of the skin on the ventral surface of both ears is initiated on Day 1. Trauma sites are evaluated on Days 8, 15, 22, 29, 36, and 43. On days 15 and 29, each site is dosed with test compounds (e.g., 1% w/w, 100 μl) by intradermal or intralesional injections.
Mammals are euthanized on Day 43, and the trauma sites are harvested and frozen for TGF beta analysis using quantitative RT-PCR (qRT-PCR) (e.g., A. K. Johnson et al., Dev. Comp. Immunol., 2006; 30(5): 473-84). TGF beta1 mRNA expression levels in treated trauma samples are compared to the expression level in the untreated trauma sample.

[2] = test system: full-thickness excision wounds; test: Histology of full-thickness excision wounds in Yucatan minipigs (fibroplasia, neovascularization); format: in vivo; details: for Neovascularization; dermis, average score / Fibroplasia; dermis, average score: Yucatan minipig wound sites after two doses, Day 59, scale 1 (minimal) to 5 (severe); for Neovascularization; dermis, average score: untreated 2.33; for Fibroplasia; dermis, average score: untreated 3.33
Excerpt: as §1, §2
On Day 59 post wound, the minipigs were sacrificed and dermal tissues were collected for qualitative and quantitative evaluation using hematoxylin and eosin, and Mason's Trichrome staining. Dermal fibroplasia was characterized by increased numbers of fibroblasts in the dermis suspended in variable amounts of collagen in wounds.

[3] = test system: benign prostate hyperplasia; test: Testosterone and phenylephrine induced benign prostate hyperplasia in rats; format: in vivo, Wistar rats; parameters: key to epithelial hyperplasia score, dorsolateral prostate, representative image / epithelial hyperplasia score, ventral prostate, representative image: severity grade 0 = not present to 5 = severe; details: TE and PE induced rats; for epithelial hyperplasia score, dorsolateral prostate, representative image / epithelial hyperplasia score, ventral prostate, representative image: intra-prostate injection 0.4 ml on days 1 and 18 (1% w/w; doxazosin mesylate 0.5%), severity grade 0 (not present) through 5 (severe), induced vehicle score=4; for glandular hyperplasia compared to untreated TE/PE induced prostates: intra-prostate injection on days 1 and 18
Experimental: BPH is a true hyperplastic process. Histologic studies have documented an increase in cell number. A study was conducted, therefore, to determine the effects of test compounds and vehicle on testosterone (TE) and phenylephrine (PE) induced benign prostate hyperplasia in rats. Male Wistar rats were induced with testosterone (2 mg/kg) plus phenylephrine (5 mg/kg) administered daily by subcutaneous injection on days 5 through 32. Vehicle or test compounds (all at 1% w/w), nintedanib, sunitinib, lenvatinib, and 0.5% doxazosin mesylate, were administered by intra-prostate injection (0.4 ml) in dorsolateral and ventral lobes on days 1 and 18. Animals were euthanized on day 32. Body weights were determined and prostate glands were harvested. The experimental design is outlined in Table 6.
At necropsy, the ventral and dorsolateral lobes of the prostate were separated and then cut into halves. The left halves were fixed in 10% neutral buffered formalin, sectioned, and stained with Hematoxylin and Eosin (H&E). Histological changes in these sections were scored. Epithelial hyperplasia was recognized as an increase in epithelial cells within normal-appearing gland profiles, primarily reflected by stratification of epithelial cells and increased presence of epithelial tufting and papillary projections. A severity grade of 0 (not present) through 5 (severe) was assigned to each sample.

Structure (SMILES) | TGF-β1 mRNA Expression Fold Relative to Untreated Unwounded Control (TGF-β1 mRNA) | alpha SMA (smooth muscle actin) staining by immunohistochemistry [1] | areas of neovascularization on the corneal surface [1] | fibroplasia and/or collagen density by histological staining [1] | suppression of dermal TGF beta 1 expression over time (TGF-beta 1) | mean folds of TGF beta mRNA expression versus untreated wound sample (TGF beta1 mRNA) | Neovascularization; dermis, average score [2] | Fibroplasia; dermis, average score [2] | epithelial hyperplasia score, dorsolateral prostate, representative image [3] | epithelial hyperplasia score, ventral prostate, representative image [3] | glandular hyperplasia compared to untreated TE/PE induced prostates [3] | reduction of TGF-β1 mRNA expression levels at treated wounds (TGF-β1 mRNA) | neovascularization and dermal fibroplasia relative to the untreated wound ([2]; Yucatan minipig, two biweekly treatments)
COc1cc2nccc(Oc3ccc(NC(=O)NC4CC4)c(Cl)c3)c2cc1C(N)=O [lenvatinib] | 2.27 fold and 0.62 fold and 0.89 fold and 0.38 fold and 0.69 fold and 2.02 fold | significantly reduced alpha SMA (smooth muscle actin) staining | efficacious in reducing the areas of neovascularization | significantly reduced fibroplasia and/or collagen density | very effective in suppressing the expression of TGF beta 1 | lower than the expression level in the untreated wound sample | (2.33) | (3.00) | 2 | 3 | demonstrated reduction of glandular hyperplasia | – | –
COC(=O)c1ccc2c(c1)NC(=O)/C2=C(\Nc1ccc(N(C)C(=O)CN2CCN(C)CC2)cc1)c1ccccc1 [nintedanib] | 0.70 fold and 0.66 fold and 0.55 fold and 0.56 fold and 0.63 fold and 0.87 fold | significantly reduced alpha SMA (smooth muscle actin) staining | efficacious in reducing the areas of neovascularization | significantly reduced fibroplasia and/or collagen density | very effective in suppressing the expression of TGF beta 1 | lower than the expression level in the untreated wound sample | (1.67) | (2.33) | 3 | 3 | demonstrated reduction of glandular hyperplasia | most effective | noticeably reduced neovascularization with a corresponding reduced dermal fibroplasia
CNC(=O)c1cc(Oc2ccc(NC(=O)Nc3ccc(Cl)c(C(F)(F)F)c3)cc2)ccn1 [sorafenib] | 0.84 fold and 0.60 fold and 0.53 fold and 0.43 fold and 0.55 fold and 0.89 fold | – | inhibition of corneal neovascularization | – | not as effective | lower than the expression level in the untreated wound sample | (2.33) | (3.00) | – | – | – | most effective | –
